Test results taken from patent US10485236B2, “Triazole derivatives, intermediates thereof and their use as fungicides” (Bayer CropScience Aktiengesellschaft, priority 2015, dated 2019).

Columns and labels:
Puccinia recondita = assay: Example B: in vivo preventive test on Puccinia recondita (brown rust on wheat); conditions: 264 h, 500 ppm of active ingredient, wheat plants, preventive spray, evaluated 11 days after inoculation, read-out: efficacy
Procedure: (§1) Example B: In Vivo Preventive Test on Puccinia recondita (Brown Rust on Wheat) [table] The active ingredients are made soluble and homogenized in a mixture of Dimethyl sulfoxide/Acetone//Tween® 80 and then diluted in water to the desired concentration. The young plants of wheat are treated by spraying the active ingredient prepared as described above. Control plants are treated only with an aqueous solution of Acetone/Dimethyl sulfoxide/Tween® 80. After 24 hours, the plants are contaminated by spraying the leaves with an aqueous suspension of Puccinia recondita spores. The contaminated wheat plants are incubated for 24 hours at 20° C. and at 100% relative humidity and then for 10 days at 20° C. and at 70-80% relative humidity. The test is evaluated 11 days after the inoculation. 0% means an efficacy which corresponds to that of the control plants while an efficacy of 100% means that no disease is observed.

Septoria tritici = assay: Example C: in vivo preventive test on Septoria tritici (leaf spot on wheat); conditions: Zymoseptoria tritici, 576 h; 500 ppm of active ingredient; wheat plants, preventive spray; evaluated 24 days after inoculation; read-out: efficacy
Procedure: Example C: In Vivo Preventive Test on Septoria tritici (Leaf Spot on Wheat) [table] The active ingredients are made soluble and homogenized in a mixture of Dimethyl sulfoxide/Acetone//Tween® 80 and then diluted in water to the desired concentration. The young plants of wheat are treated by spraying the active ingredient prepared as described above. Control plants are treated only with an aqueous solution of Acetone/Dimethyl sulfoxide/Tween® 80. After 24 hours, the plants are contaminated by spraying the leaves with an aqueous suspension of Septoria tritici spores. The contaminated wheat plants are incubated for 72 hours at 18° C. and at 100% relative humidity and then for 21 days at 20° C. and at 90% relative humidity. The test is evaluated 24 days after the inoculation. 0% means an efficacy which corresponds to that of the control plants while an efficacy of 100% means that no disease is observed.

[1] = Measurement of LogP values by HPLC on reversed phase columns (EEC directive 79/831 Annex V.A8); assay type: physicochemical; conditions: reversed phase HPLC column, method [a]: LC-UV, acidic range, 0.1% formic acid in water and acetonitrile as eluent
How it was run: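 Calibrated with straight-chain alkan-2-ones (3–16 carbons) of known LogP, using retention times with linear interpolation between successive alkanones. Where one method gives several LogP values, all are listed, joined by "+". Lambda-max taken from UV spectra (200–400 nm) at chromatographic peak maxima.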

Sphaerotheca fuliginea [2] = assay: Example M: in vivo preventive test on Sphaerotheca (cucumbers); comparison of phenoxy-pyridyl compounds vs. known phenoxy-phenyl compounds; conditions: Podosphaera fuliginea, 168 h, rate of application 10 ppm, evaluated 7 days after inoculation, read-out: Efficacy in %
Procedure: Example M: In Vivo Preventive Test on Sphaerotheca (Cucumbers); Comparison of Phenoxy-pyridyl Compounds According to the Invention Vs. Known Phenoxy-phenyl Compounds [table] To produce a suitable preparation of active compound, 1 part by weight of active compound is mixed with the above stated amounts of solvent and emulsifier, and the concentrate is diluted with water to the desired concentration. To test for preventive activity, young plants are sprayed with the preparation of active compound at the stated rate of application. After the spray coating has dried on, the plants are inoculated with an aqueous spore suspension of Sphaerotheca fuliginea. The plants are then placed in a greenhouse at approximately 23° C. and a relative atmospheric humidity of approximately 70%. The test is evaluated 7 days after the inoculation. 0% means an efficacy which corresponds to that of the untreated control, while an efficacy of 100% means that no disease is observed. [table]

Uromyces appendiculatus = assay: Example E: in vivo preventive test on Uromyces appendiculatus (bean rust); conditions: 264 h, 500 ppm of active ingredient, bean plants, preventive spray, evaluated 11 days after inoculation, read-out: efficacy
Procedure: as §1, with “E:” for “B:”, “Uromyces appendiculatus (Bean Rust)” for “Puccinia recondita (Brown Rust on Wheat)”, “bean” for “wheat”, “Uromyces appendiculatus” for “Puccinia recondita”

Venturia inaequalis = assay: Example H: in vivo preventive test on Venturia test (apples); conditions: 240 h, 100 ppm of active ingredient, preventive spray, evaluated 10 days after inoculation, read-out: efficacy
Procedure: Example H: In Vivo Preventive Test on Venturia Test (Apples) [table] To produce a suitable preparation of active compound, 1 part by weight of active compound is mixed with the stated amounts of solvent and emulsifier, and the concentrate is diluted with water to the desired concentration. To test for preventive activity, young plants are sprayed with the preparation of active compound at the stated rate of application. After the spray coating has dried on, the plants are inoculated with an aqueous conidia suspension of the causal agent of apple scab (Venturia inaequalis) and then remain for 1 day in an incubation cabinet at approximately 20° C. and a relative atmospheric humidity of 100%. The plants are then placed in a greenhouse at approximately 21° C. and a relative atmospheric humidity of approximately 90%. The test is evaluated 10 days after the inoculation. 0% means an efficacy which corresponds to that of the untreated control, while an efficacy of 100% means that no disease is observed.

Alternaria solani = assay: Example F: in vivo preventive test on Alternaria test (tomatoes); conditions: 72 h, 100 ppm of active ingredient, preventive spray, evaluated 3 days after inoculation, read-out: efficacy
Procedure: Example F: In Vivo Preventive Test on Alternaria Test (Tomatoes) [table] To produce a suitable preparation of active compound, 1 part by weight of active compound is mixed with the stated amounts of solvent and emulsifier, and the concentrate is diluted with water to the desired concentration. To test for preventive activity, young plants are sprayed with the preparation of active compound at the stated rate of application. After the spray coating has dried on, the plants are inoculated with an aqueous spore suspension of Alternaria solani. The plants are then placed in an incubation cabinet at approximately 20° C. and a relative atmospheric humidity of 100%. The test is evaluated 3 days after the inoculation. 0% means an efficacy which corresponds to that of the untreated control while an efficacy of 100% means that no disease is observed.

Sphaerotheca fuliginea [3] = assay: Example D: in vivo preventive test on Sphaerotheca fuliginea (powdery mildew on cucurbits); conditions: Podosphaera fuliginea, 360 h; 500 ppm of active ingredient; gherkin plants, preventive spray; evaluated 15 days after inoculation; read-out: efficacy
Procedure: Example D: In Vivo Preventive Test on Sphaerotheca fuliginea (Powdery Mildew on Cucurbits) [table] The active ingredients are made soluble and homogenized in a mixture of Dimethyl sulfoxide/Acetone//Tween® 80 and then diluted in water to the desired concentration. The young plants of gherkin are treated by spraying the active ingredient prepared as described above. Control plants are treated only with an aqueous solution of Acetone/Dimethyl sulfoxide/Tween® 80. After 24 hours, the plants are contaminated by spraying the leaves with an aqueous suspension of Sphaerotheca fuliginea spores. The contaminated gherkin plants are incubated for 72 hours at 18° C. and at 100% relative humidity and then for 12 days at 20° C. and at 70-80% relative humidity. The test is evaluated 15 days after the inoculation. 0% means an efficacy which corresponds to that of the control plants while an efficacy of 100% means that no disease is observed.

Botrytis cinerea = assay: Example A: in vivo preventive test on Botrytis cinerea (grey mould), gherkin; conditions: gherkin plants, preventive spray, evaluated 4 to 5 days after inoculation, read-out: efficacy
Procedure: Example A: In Vivo Preventive Test on Botrytis cinerea (Grey Mould) [table] The active ingredients are made soluble and homogenized in a mixture of Dimethyl sulfoxide/Acetone//Tween® 80 and then diluted in water to the desired concentration. The young plants of gherkin are treated by spraying the active ingredient prepared as described above. Control plants are treated only with an aqueous solution of Acetone/Dimethyl sulfoxide/Tween® 80. After 24 hours, the plants are contaminated by spraying the leaves with an aqueous suspension of Botrytis cinerea spores. The contaminated gherkin plants are incubated for 4 to 5 days at 17° C. and at 90% relative humidity. The test is evaluated 4 to 5 days after the inoculation. 0% means an efficacy which corresponds to that of the control plants while an efficacy of 100% means that no disease is observed.

chromatographic logP [1]: 3
Structure (SMILES): Cc1ccc(Oc2ccc(C(C)(O)Cn3cncn3)c(Cl)n2)cc1Cl (stereo not drawn) [I.29]
pest or weed control at 500 ppm (Puccinia recondita): 80 to 89%
pest or weed control at 500 ppm (Septoria tritici): 90 to 100%
pest or weed control at 10 ppm (Sphaerotheca fuliginea [2]): 95%
pest or weed control at 500 ppm (Uromyces appendiculatus): 90 to 100%
pest or weed control at 100 ppm (Venturia inaequalis): 90 to 100%
pest or weed control at 100 ppm (Alternaria solani): 90 to 100%
pest or weed control at 500 ppm (Sphaerotheca fuliginea [3]): 90 to 100%
pest or weed control (Botrytis cinerea): 90 to 100%
